Test results from BigSolDB 2.1.

Details: in water

Row | Structure (SMILES) | solubility (mole fraction) (298.15 K) | solubility (mole fraction) (303.15 K) | solubility (mole fraction) (308.15 K) | solubility (mole fraction) (313.15 K) | solubility (mole fraction) (318.15 K) | solubility (mole fraction) (323.15 K) | solubility (mole fraction) (328.15 K) | solubility (mole fraction) (333.15 K)
1 | Nc1ccc(S(=O)(=O)Nc2ncccn2)cc1 | 4.82e-06 | 6.2e-06 | 8.23e-06 | 1.05e-05 | 1.33e-05 | 1.7e-05 | 2.1e-05 | 2.62e-05
2 | COc1cnc(NS(=O)(=O)c2ccc(N)cc2)nc1 | 5.52e-06 | 7.19e-06 | 9.26e-06 | 1.17e-05 | 1.48e-05 | 1.88e-05 | 2.34e-05 | 2.92e-05
3 | COc1cc(NS(=O)(=O)c2ccc(N)cc2)nc(OC)n1 | 3.07e-06 | 3.83e-06 | 4.78e-06 | 5.83e-06 | 7.25e-06 | 8.76e-06 | 1.05e-05 | 1.28e-05
4 | COc1cc(NS(=O)(=O)c2ccc(N)cc2)ncn1 | 3.88e-06 | 4.9e-06 | 6.13e-06 | 7.65e-06 | 9.63e-06 | 1.17e-05 | 1.45e-05 | 1.76e-05
5 | Nc1ccc(S(=O)(=O)[N-]c2cncc(Cl)n2)cc1.[Na+] | 1.12e-05 | 1.35e-05 | 1.59e-05 | 1.91e-05 | 2.3e-05 | 2.75e-05 | 3.28e-05 | 3.91e-05
